Measured values taken from paper PMC9573696, “Experimental Examination of Solubility and Lipophilicity as Pharmaceutically Relevant Points of Novel Bioactive Hybrid Compounds” (Molecules, 2022).
In brackets after ≈: the same amount, converted by molar mass.

How the values were obtained:
C. glabrata 61L = assay: In vitro antifungal activity, microbroth dilution (MIC); assay type: cell-based; details: Nakaseomyces glabratus; C. glabrata 61L; 35 °C, 24 h; read-out: MIC
Description: (§1) The in vitro antifungal screening results of synthesized compounds was evaluated against three fungal strains: C. parapsilosis ATCC 22019, C. utilis 84, and C. glabrata 61L are summarized in Table 1.
(§2) The in vitro antifungal activity of the target compounds was measured by means of the minimal inhibitory concentrations (MIC) with fluconazole as the control drug. Procedure was carried out by the microbroth dilution method in 96-well plates according to the recommendations of the Clinical and Laboratory Standards Institute. The detailed information was reported previously. The investigated pathogenic species included C. parapsilosis ATCC 22019, C. utilis 84 and C. glabrata 61. The sensitivity was evaluated visually, after the incubation at 35 °C for 24 h and the value was compared with the growth density in the reference culture without the sample. Each test was conducted in triplicate.

[1] = system: C. parapsilosis ATCC 22019; assay: as above; assay type: cell-based; details: C. parapsilosis ATCC 22019
Description: as §1, §2

C. utilis 84 = assay: as above; assay type: cell-based; details: C. utilis 84
Description: as §1, §2

[2] = Partition in system 1-octanol/buffer pH 7.4, shake-flask method; assay type: physicochemical; details: for logP at 2 days / logD at 2 days: 1-octanol/buffer pH 7.4, pH 7.4, 1-octanol/buffer pH 7.4; for logP at 2 days: from concentrations in mole fraction; for logD at 2 days / logPo/b: from concentrations in mol∙L^−1; for sb × 10^5 (concentration in buffer) / so × 10^3 (concentration in 1-octanol) / xb × 10^7 (mole fraction in buffer) / xo × 10^4 (mole fraction in 1-octanol) / logPo/b: 1-octanol/buffer pH 7.4
Description: The partition coefficients of the new hybrid compounds in the model system 1-octanol/buffer pH 7.4 as a lipophilicity surrogate were determined experimentally. […] It is the lipophilic properties that allow the hybrids to move from the water phase to the less hydrophilic octanol phase, where the solute–solvent intermolecular interactions are more favourable. According to the results shown in Table 5, the order of changes in the partition coefficients logPo/b at T = 298.15 K, depending on the substituent nature, is expressed as the inequality: Cl- (1.65) < F- (2.40) < CH3- (2.50). Compounds I and II are the most lipophilic in the series of the studied substances, whereas the introduction of a chlorine atom considerably lowers the partition coefficient (~0.8 log units). This fact agrees with the common concept that lipophilic groups are usually hydrocarbon or fluorine-containing radicals. […] For drugs with such partition coefficients, there is a good balance between the solubility and permeability through passive diffusion and minimum metabolism due to the low binding capacity with enzymes.
The octanol/buffer pH 7.4 partition coefficient logPO/B is measured in a static mode using the shake-flask method. The procedure has been presented as standard in the Organization for Economic Cooperation and Development (OECD) guidelines for testing chemicals. The equipment described above was also used for the determination of the 1-octanol/water partition coefficients. […] The correctness of the obtained value of each compound was verified by checking the mass balance of the starting amount of the compound and the total amount of the compound partitioned between the two phases.
To aim evaluated transfer (partition) thermodynamic functions, the 1-octanol/buffer partition coefficients P^* o/b as the ratio of equilibrium concentrations in the organic (xo) and aqueous phases (xb) expressed in mole fractions were calculated: P* o/b = xo/xb(12)

[3] = Thermodynamic functions of transfer 1-octanol/buffer pH 7.4; assay type: physicochemical; details: 298.15 K
Description: The temperature variation of the partition coefficient provides enthalpic and entropic contributions to the free energy of transfer. The thermodynamic transfer functions for hybrids I–III in the 1-octanol/buffer pH 7.4 system were calculated by Equations (12)–(16) and are summarized in Table 6. The standard Gibbs energy values for all the compounds are negative. Therefore, the transfer from the aqueous medium to the organic phase within the studied temperature range is thermodynamically favourable and spontaneous. The standard transfer enthalpies of all the studied compounds are positive, which means the process is endothermic. Energy is consumed during the transfer to overcome the hydrophobic effects in water (destruction of the molecule solvate shell structure), destruction of the solvent–solute interactions in the aqueous medium and creation of a cavity in the organic phase where the solute molecules can enter.
The standard change in Gibbs free energy of transfer (∆trG^o) from the buffer to the organic phase was calculated by Equation (14):∆trG^o = −RTlnP*o/b(14)
The standard change entropy of transfer (∆trS^o) is determined as follows:∆trS^o = (∆trH^o − ∆trG^o)/T(15)

MIC (C. glabrata 61L): 4 µg/mL (≈ 6.22 µM)
MIC ([1]; Lodderomyces parapsilosis, ATCC22019, 35 °C, 24 h, read-out: MIC): 0.1 µg/mL (≈ 0.156 µM)
MIC (C. utilis 84; Williopsis jadinii, 35 °C, 24 h, read-out: MIC): 1 µg/mL (≈ 1.56 µM)
logP at 2 days ([2]; 293.15 K): 3.3
logD at 2 days ([2]; 293.15 K): 2.36
logP at 2 days ([2]; 298.15 K): 3.34
logP at 2 days ([2]; 303.15 K): 3.37
logD at 2 days ([2]; 303.15 K): 2.43
logP at 2 days ([2]; 308.15 K): 3.41
logP at 2 days ([2]; 313.15 K): 3.45
logD at 2 days ([2]; 313.15 K): 2.5
sb × 10^5 (concentration in buffer) ([2]; 293.15 K): 1.47 mol∙L^−1 (printed as sb × 10^5
so × 10^3 (concentration in 1-octanol) ([2]; 293.15 K): 3.39 mol∙L^−1 (printed as so × 10^3
xb × 10^7 (mole fraction in buffer) ([2]; 293.15 K): 2.67 mole fraction (printed as xb ×
xo × 10^4 (mole fraction in 1-octanol) ([2]; 293.15 K): 5.34 mole fraction (printed as xo ×
sb × 10^5 (concentration in buffer) ([2]; 298.15 K): 1.35 mol∙L^−1 (printed as sb × 10^5
so × 10^3 (concentration in 1-octanol) ([2]; 298.15 K): 3.39 mol∙L^−1 (printed as so × 10^3
xb × 10^7 (mole fraction in buffer) ([2]; 298.15 K): 2.45 mole fraction (printed as xb ×
xo × 10^4 (mole fraction in 1-octanol) ([2]; 298.15 K): 5.37 mole fraction (printed as xo ×
logPo/b ([2]; 298.15 K): 2.40
sb × 10^5 (concentration in buffer) ([2]; 303.15 K): 1.25 mol∙L^−1 (printed as sb × 10^5
so × 10^3 (concentration in 1-octanol) ([2]; 303.15 K): 3.39 mol∙L^−1 (printed as so × 10^3
xo × 10^4 (mole fraction in 1-octanol) ([2]; 303.15 K): 5.39 mole fraction (printed as xo ×
sb × 10^5 (concentration in buffer) ([2]; 308.15 K): 1.15 mol∙L^−1 (printed as sb × 10^5
so × 10^3 (concentration in 1-octanol) ([2]; 308.15 K): 3.39 mol∙L^−1 (printed as so × 10^3
xb × 10^7 (mole fraction in buffer) ([2]; 308.15 K): 2.08 mole fraction (printed as xb ×
xo × 10^4 (mole fraction in 1-octanol) ([2]; 308.15 K): 5.42 mole fraction (printed as xo ×
logPo/b ([2]; 308.15 K): 2.47
sb × 10^5 (concentration in buffer) ([2]; 313.15 K): 1.06 mol∙L^−1 (printed as sb × 10^5
so × 10^3 (concentration in 1-octanol) ([2]; 313.15 K): 3.39 mol∙L^−1 (printed as so × 10^3
xb × 10^7 (mole fraction in buffer) ([2]; 313.15 K): 1.94 mole fraction (printed as xb ×
xo × 10^4 (mole fraction in 1-octanol) ([2]; 313.15 K): 5.44 mole fraction (printed as xo ×
T∆trS^o [3]: 7.62 ± 0.19 kcal/mol
∆trG^o [3]: -4.57 ± 0.072 kcal/mol
∆trH^o [3]: 3.06 ± 0.048 kcal/mol
∆trS^o [3]: 106.9 ± 2.9 J·mol^−1·K^−1
SMILES: O=c1c2sc(=S)n(-c3ccc(F)cc3)c2ncn1CCCN1CCN(CC(O)(Cn2cncn2)c2ccc(F)cc2F)CC1 (centres unmarked) [II, 6-[3-[4-[2-(2,4-difluorophenyl)-2-hydroxy-3-(1H-1,2,4-triazol-1-yl)propyl]-1-piperazinyl]propyl]-2,3-dihydro-3-(4-fluorophenyl)-2-thioxo-thiazolo[4,5-d]pyrimidin-7(6H)-one]
advantage over fluconazole ([1]; MIC ratio): 20 fold
activity relative to fluconazole (C. utilis 84): 2 times
